Experimental data taken from ChEMBL document CHEMBL4507268 (2021).

What was measured:
Details in all cases: Compound concentration 1.0 uM
[1] = molecular target: Protein kinase C theta type (Homo sapiens) (UniProt Q04759)
[2] = molecular target: PAS domain-containing serine/threonine-protein kinase (Homo sapiens) (UniProt Q96RG2)
[3] = molecular target: T1, Serine/threonine-protein kinase Sgk3 (Homo sapiens) (UniProt Q96BR1)
T1 sequence (whole entry): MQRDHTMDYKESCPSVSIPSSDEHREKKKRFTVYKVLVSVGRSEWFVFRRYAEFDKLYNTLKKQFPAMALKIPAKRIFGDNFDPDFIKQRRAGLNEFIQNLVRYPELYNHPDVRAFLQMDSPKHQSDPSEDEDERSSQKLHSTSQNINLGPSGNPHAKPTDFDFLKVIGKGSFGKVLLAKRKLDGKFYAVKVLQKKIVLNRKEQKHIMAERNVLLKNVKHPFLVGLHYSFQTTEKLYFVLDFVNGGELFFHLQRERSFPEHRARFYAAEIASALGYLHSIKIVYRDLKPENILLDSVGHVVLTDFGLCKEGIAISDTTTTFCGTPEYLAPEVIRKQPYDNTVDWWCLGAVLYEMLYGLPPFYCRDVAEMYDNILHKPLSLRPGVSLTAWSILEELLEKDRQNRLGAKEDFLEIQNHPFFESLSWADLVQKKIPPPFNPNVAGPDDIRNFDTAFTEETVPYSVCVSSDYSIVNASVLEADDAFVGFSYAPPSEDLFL

[4] = molecular target: Calcium/calmodulin-dependent protein kinase type 1 (Homo sapiens) (UniProt Q14012)
Calcium/calmodulin-dependent protein kinase type 1 (Homo sapiens), sequence (Q14012 whole entry, looked up): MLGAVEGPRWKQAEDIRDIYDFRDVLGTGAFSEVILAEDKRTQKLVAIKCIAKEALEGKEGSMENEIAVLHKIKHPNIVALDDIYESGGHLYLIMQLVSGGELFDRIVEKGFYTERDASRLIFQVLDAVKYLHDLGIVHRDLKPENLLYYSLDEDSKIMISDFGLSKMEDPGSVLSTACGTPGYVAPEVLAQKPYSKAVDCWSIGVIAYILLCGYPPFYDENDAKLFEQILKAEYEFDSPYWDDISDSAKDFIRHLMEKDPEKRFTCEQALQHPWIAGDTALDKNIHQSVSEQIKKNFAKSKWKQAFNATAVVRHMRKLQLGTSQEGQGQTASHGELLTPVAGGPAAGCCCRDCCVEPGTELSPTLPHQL

[5] = molecular target: Mitogen-activated protein kinase kinase kinase kinase 1 (Homo sapiens) (UniProt Q92918)
Mitogen-activated protein kinase kinase kinase kinase 1 (Homo sapiens), sequence (Q92918 whole entry, looked up): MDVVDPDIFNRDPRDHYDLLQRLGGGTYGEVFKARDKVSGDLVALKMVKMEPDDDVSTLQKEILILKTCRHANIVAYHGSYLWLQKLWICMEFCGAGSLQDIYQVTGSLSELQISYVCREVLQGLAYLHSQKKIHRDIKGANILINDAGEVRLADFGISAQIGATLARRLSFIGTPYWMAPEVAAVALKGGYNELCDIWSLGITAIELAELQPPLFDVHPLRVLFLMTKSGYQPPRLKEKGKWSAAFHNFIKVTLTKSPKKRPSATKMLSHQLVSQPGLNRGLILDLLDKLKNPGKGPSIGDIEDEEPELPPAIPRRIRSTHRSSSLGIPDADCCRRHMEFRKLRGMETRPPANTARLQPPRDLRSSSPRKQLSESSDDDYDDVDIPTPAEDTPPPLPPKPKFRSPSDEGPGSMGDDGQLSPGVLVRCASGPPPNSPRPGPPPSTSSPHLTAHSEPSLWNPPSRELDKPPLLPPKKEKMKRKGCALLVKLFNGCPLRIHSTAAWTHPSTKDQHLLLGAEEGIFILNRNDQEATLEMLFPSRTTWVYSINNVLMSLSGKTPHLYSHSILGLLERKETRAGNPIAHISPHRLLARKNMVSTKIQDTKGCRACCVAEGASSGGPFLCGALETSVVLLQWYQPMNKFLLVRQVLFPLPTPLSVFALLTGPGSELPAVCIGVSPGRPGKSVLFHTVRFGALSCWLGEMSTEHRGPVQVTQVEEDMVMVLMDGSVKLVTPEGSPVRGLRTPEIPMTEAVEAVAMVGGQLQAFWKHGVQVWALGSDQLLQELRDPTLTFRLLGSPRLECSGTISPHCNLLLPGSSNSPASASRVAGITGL

[6] = molecular target: T2, Rhodopsin kinase GRK7 (Homo sapiens) (UniProt Q8WTQ7)
T2 sequence (whole entry): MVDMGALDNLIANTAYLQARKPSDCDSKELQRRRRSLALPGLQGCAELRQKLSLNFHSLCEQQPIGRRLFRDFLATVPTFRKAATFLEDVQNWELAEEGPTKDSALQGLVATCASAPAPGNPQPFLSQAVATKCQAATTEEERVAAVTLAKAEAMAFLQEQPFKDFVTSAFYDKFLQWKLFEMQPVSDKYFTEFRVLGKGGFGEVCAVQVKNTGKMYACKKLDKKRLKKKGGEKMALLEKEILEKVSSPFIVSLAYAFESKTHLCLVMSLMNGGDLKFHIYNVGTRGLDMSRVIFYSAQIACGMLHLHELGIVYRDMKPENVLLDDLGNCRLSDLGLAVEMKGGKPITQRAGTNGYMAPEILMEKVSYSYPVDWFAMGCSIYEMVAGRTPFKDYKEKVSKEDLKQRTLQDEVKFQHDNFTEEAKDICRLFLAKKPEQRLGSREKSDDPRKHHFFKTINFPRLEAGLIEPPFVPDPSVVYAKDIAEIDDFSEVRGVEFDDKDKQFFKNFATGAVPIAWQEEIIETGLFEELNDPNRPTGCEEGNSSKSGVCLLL

[7] = molecular target: T3, Serine/threonine-protein kinase NLK (Homo sapiens) (UniProt Q9UBE8)
T3 sequence (whole entry): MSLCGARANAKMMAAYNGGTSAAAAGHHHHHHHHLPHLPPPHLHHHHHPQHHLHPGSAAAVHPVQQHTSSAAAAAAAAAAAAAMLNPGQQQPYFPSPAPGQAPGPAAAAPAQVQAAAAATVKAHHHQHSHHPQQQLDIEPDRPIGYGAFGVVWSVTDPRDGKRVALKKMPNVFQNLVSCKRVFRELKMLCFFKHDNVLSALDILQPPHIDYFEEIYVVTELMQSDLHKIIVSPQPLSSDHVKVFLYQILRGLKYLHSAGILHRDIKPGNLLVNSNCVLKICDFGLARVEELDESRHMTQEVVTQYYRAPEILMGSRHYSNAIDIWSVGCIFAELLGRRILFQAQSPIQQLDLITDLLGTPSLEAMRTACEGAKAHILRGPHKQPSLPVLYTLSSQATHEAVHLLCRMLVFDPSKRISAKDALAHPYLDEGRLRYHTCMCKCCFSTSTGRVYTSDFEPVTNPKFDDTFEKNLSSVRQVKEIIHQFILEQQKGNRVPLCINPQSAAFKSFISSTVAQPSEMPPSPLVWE

[8] = molecular target: Serine/threonine-protein kinase pim-3 (Homo sapiens) (UniProt Q86V86)
[9] = molecular target: T4, Mitogen-activated protein kinase 12 (Homo sapiens) (UniProt P53778)
T4 sequence (whole entry): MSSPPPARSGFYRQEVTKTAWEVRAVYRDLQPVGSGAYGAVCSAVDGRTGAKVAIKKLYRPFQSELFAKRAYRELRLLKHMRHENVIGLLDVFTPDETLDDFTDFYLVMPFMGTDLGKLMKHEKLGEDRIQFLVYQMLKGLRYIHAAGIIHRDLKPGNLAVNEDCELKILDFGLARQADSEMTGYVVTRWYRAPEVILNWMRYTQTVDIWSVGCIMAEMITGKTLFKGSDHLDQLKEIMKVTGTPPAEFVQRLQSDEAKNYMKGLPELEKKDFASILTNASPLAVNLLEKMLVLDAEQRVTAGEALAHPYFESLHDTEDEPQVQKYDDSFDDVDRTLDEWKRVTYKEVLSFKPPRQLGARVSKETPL

[10] = molecular target: PI3-kinase p110-delta/p85-alpha (Homo sapiens) (UniProt P27986+O00329)

Measured: % residual kinase activity

PAS domain-containing serine/threonine-protein kinase (Homo sapiens), sequence (Q96RG2 whole entry, the tested form may be a part): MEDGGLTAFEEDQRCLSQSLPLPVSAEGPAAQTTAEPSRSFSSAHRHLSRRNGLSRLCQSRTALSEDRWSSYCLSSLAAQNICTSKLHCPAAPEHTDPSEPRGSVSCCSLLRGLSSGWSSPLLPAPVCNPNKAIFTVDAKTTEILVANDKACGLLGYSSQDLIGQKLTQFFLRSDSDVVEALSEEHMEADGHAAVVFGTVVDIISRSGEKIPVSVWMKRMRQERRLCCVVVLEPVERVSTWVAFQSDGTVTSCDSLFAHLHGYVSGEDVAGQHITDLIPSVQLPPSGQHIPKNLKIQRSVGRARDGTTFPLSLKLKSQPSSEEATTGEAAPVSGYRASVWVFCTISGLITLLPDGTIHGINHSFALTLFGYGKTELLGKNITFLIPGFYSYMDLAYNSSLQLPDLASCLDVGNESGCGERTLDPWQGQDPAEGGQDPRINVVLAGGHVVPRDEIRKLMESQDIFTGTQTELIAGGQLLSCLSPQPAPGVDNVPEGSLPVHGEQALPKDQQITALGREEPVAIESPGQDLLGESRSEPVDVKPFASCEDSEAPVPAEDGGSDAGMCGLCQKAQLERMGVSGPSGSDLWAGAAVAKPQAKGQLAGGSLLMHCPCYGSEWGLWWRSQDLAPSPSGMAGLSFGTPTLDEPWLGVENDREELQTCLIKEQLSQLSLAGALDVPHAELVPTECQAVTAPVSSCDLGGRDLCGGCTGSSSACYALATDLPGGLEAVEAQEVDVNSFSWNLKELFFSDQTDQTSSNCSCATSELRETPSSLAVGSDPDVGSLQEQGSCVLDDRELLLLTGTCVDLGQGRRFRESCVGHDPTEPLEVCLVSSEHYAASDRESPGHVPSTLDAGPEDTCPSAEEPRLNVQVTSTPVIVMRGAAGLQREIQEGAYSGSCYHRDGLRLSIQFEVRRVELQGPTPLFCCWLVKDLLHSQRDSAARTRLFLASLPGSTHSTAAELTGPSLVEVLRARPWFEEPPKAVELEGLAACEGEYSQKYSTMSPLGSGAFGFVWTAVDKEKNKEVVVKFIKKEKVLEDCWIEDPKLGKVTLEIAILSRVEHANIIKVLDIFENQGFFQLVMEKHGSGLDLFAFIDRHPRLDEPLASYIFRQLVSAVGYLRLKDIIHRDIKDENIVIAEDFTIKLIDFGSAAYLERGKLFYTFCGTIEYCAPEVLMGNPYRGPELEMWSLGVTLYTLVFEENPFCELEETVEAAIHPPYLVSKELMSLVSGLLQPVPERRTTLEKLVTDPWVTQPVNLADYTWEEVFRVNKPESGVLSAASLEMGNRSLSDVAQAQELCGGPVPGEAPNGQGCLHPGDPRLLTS
Protein kinase C theta type (Homo sapiens), sequence (Q04759 whole entry, looked up, the tested form may be a part): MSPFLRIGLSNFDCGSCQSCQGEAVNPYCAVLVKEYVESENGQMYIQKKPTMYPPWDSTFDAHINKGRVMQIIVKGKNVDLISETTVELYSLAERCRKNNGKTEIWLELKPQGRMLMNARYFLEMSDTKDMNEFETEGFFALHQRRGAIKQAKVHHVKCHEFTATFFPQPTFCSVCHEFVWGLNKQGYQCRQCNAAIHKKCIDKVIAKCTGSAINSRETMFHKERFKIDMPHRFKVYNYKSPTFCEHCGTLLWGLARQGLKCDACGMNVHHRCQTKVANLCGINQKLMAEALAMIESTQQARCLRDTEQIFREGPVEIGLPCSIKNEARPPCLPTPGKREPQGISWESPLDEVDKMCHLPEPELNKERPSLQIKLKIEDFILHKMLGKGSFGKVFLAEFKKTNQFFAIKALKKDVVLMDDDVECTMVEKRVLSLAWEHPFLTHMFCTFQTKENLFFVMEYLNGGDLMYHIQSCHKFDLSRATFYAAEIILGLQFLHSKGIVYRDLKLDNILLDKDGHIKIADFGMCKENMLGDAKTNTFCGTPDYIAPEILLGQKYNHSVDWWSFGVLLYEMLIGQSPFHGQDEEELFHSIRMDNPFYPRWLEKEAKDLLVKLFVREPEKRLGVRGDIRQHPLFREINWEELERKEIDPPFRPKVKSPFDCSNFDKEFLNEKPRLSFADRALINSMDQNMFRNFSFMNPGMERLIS

CN1CCN(c2cnc3c(C4CCN(C(=O)c5ccc(OC(F)(F)F)cc5N)CC4)ncnc3c2)CC1 [BAY-885]
inactive: [1] 115% | [2] 107% | [3] 104% | [4] 109% | [5] 106% | [6] 101% | [7] 111% | [8] 102% | [9] 112% | [10] 102%
